From article PMC11123841, “Discovery and Synthesis of Hydroxy-L-Proline Blockers of the Neutral Amino Acid Transporters SLC1A4 (ASCT1) and SLC1A5 (ASCT2)” (Molecules, 2024)
Entries after “also recorded” stand apart in the source; their conditions may differ.

What was measured:
Type in all cases: cell-based
SLC1A4 [1] = target: T1, SLC1A4 (Homo sapiens, UniProt P43007); test: Schild analysis of L-alanine dose responses
T1 construct: expressed in transfected cells; host or cells: Xenopus laevis oocytes (cRNA injection)
T1 sequence (P43007 1-532): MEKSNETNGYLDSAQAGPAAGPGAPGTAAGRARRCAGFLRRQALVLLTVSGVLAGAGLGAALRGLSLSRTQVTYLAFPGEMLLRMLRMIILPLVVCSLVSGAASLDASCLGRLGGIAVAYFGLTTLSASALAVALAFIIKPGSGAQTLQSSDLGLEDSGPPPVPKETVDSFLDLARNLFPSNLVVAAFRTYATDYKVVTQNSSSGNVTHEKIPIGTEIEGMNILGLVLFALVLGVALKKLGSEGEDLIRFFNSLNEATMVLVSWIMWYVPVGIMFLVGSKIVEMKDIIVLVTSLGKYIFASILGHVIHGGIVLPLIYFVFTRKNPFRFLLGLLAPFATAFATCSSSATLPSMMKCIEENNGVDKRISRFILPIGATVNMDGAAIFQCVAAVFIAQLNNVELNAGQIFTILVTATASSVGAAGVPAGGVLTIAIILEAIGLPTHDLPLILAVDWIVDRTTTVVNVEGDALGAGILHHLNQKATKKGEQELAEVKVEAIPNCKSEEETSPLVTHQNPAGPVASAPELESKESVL
Procedure: We further characterized the highest affinity blocker discovered from our AHPC series, biphenyl-O-hydroxy-proline (BPOHP, 14e). […] A respective right shift in the substrate dose response was apparent with increasing concentrations of BPOHP (Figure 4C).
(§1) Two-electrode voltage clamp (TEVC) transporter currents were recorded with a GeneClamp 500 amplifier and Digidata 1320A analog–digital interface (Molecular Devices, San Jose, CA, USA). Electrodes (0.2–1.0 MΩ) were filled with 3M KCl and the recording chamber was grounded with an agar bridge. Data were acquired with Axograph (v1.7.6) and LabChart (v7) and analyzed with Kaleidagraph software (v4.1) (Synergy, Reading, PA, USA). Uncoupled anion currents associated with the transport of substrate and block of SLC1A4 or SLC1A5 mediated leak conductance were recorded in the presence of Ringer with 50% substitution of NaCl by NaSCN to amplify the non-transported anion conductance.
Figure 4 BPOHP 14e characterization as a competitive, non-transportable inhibitor. […] (D) A Schild plot showing a linear relationship between [L-ala] dose ratio and four different concentrations of BPOHP, consistent with competitive inhibition.

SLC38A2 (ATA2) = target: T2, SLC38A2 (ATA2) (Homo sapiens, UniProt Q96QD8); test: TEVC electrogenic coupled currents in oocytes; settings: 100 µM L-alanine, 3 µM BPOHP
T2 construct: expressed in transfected cells; host or cells: Xenopus laevis oocytes (cRNA injection)
T2 sequence (Q96QD8 1-506): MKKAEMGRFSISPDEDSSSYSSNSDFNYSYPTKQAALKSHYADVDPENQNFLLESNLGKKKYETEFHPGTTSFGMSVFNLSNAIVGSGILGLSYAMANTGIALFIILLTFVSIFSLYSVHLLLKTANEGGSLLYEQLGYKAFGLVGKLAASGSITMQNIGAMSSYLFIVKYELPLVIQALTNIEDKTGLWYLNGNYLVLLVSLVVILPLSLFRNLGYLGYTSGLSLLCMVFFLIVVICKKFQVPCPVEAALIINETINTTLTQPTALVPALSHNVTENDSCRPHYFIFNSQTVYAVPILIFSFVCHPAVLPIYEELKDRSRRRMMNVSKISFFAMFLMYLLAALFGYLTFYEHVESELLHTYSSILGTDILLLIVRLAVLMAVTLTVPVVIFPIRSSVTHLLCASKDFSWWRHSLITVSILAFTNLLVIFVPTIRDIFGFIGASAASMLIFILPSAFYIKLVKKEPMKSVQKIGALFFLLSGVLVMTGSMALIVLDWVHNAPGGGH
Procedure: Additionally, 4-HP applied at 1 mM was used to assess activity at the glutamate transporters SLC1A3 or SLC1A1.
BPOHP activity was evaluated against the glutamate transporters paralogs within the SLC1A gene family (SLC1A 1–3) as well as at neutral amino acid transporters that share common ligand substrates with the SLC1 family including SLC38A1,2, and 4 (ATA1, ATA2, ATA3) and heteromeric transporters SLC7A10+SLC3A2 (asc-1/4f2).
Uptake was halted by washing 3 times with 4 °C ND96 buffer. Oocytes were then lysed in 0.1% Triton X-100, and radioactivity was counted via liquid scintillation. Dose response curves were generated by fitting fractional inhibition (I) to the expression I = Imax × [inhibitor]/([inhibitor] + IC50).
Two-electrode voltage clamp (TEVC) transporter currents were recorded with a GeneClamp 500 amplifier and Digidata 1320A analog–digital interface (Molecular Devices, San Jose, CA, USA). […] Data were acquired with Axograph (v1.7.6) and LabChart (v7) and analyzed with Kaleidagraph software (v4.1) (Synergy, Reading, PA, USA). Uncoupled anion currents associated with the transport of substrate and block of SLC1A4 or SLC1A5 mediated leak conductance were recorded in the presence of Ringer with 50% substitution of NaCl by NaSCN to amplify the non-transported anion conductance. […]

mSLC1A5 = target: T3, mSLC1A5 (Mus musculus, UniProt P51912); test: TEVC block of anion leak conductance in oocytes; settings: SLC1A5; compared with ligands of refs 43, 65
T3 construct: expressed in transfected cells; host or cells: Xenopus laevis oocytes (cRNA injection)
T3 sequence (P51912 1-553): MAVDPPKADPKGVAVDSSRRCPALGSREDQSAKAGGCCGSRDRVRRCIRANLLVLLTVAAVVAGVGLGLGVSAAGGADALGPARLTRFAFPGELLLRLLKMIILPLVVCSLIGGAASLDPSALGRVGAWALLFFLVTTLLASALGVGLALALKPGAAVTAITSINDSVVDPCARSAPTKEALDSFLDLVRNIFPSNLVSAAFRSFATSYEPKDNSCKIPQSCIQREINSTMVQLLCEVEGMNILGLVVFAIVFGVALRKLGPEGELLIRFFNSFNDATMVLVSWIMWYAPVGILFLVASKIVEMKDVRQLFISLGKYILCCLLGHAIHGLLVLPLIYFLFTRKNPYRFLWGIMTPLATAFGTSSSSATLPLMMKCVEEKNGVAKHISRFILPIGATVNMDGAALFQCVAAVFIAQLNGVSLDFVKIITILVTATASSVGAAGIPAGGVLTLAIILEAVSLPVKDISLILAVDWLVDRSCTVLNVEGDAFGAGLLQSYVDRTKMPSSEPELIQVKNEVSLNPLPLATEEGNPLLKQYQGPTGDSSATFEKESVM
Source text: (§2) The currents induced by substrates and blocked by hydroxyproline analogs shared a reversal potential shown in the current/voltage relationship consistent with the conductance originating from the same ion pore (Figure 3, inset). […] The observed dose–response relationships are independent of competing substrates, and thus provide a direct measure of the equilibrium inhibition constant (Ki). Each synthetic hydroxyproline analog was functionally assessed for its capacity to inhibit SLC1A4 and SLC1A5 leak currents with affinities reported in Table 1 as determined or approximated Ki.
as §1
(§3) Figure 3 AHPCs block a leak current in SLC1A4 and SLC1A5. […] Inset (A): The current and voltage relationship for SLC1A4 currents activated by Ala or blocked by 14b are determined by subtracting voltage jumps in buffer.

SLC1A4 [2] = target: T1, SLC1A4; test: TEVC block of anion leak conductance in oocytes; settings: SLC1A4; compared with ligands of refs 43, 65
Source text: as §2, §1, §3

O=C(O)[C@H]1NC[C@@H](OCc2ccc(-c3ccccc3)cc2)[C@@H]1O [14e]
Kb (SLC1A4 [1]): 120 nM
block of L-alanine current (SLC38A2 (ATA2)): no effect; also recorded: no discernible block; also recorded: no inhibition was detected
fold improvement in affinity over ligands previously reported (mSLC1A5): 7–25 fold
fold improvement in affinity over ligands previously reported (SLC1A4 [2]): 7–25 fold
